IC50 data for 23 molecules are collected here from patent publication US8536198B2, “Piperidine derivatives as modulators of chemokine receptor activity” (Bristol-Myers Squibb Company, priority 2007, dated 2013).

Sequence of CCR1 (P32246 whole entry): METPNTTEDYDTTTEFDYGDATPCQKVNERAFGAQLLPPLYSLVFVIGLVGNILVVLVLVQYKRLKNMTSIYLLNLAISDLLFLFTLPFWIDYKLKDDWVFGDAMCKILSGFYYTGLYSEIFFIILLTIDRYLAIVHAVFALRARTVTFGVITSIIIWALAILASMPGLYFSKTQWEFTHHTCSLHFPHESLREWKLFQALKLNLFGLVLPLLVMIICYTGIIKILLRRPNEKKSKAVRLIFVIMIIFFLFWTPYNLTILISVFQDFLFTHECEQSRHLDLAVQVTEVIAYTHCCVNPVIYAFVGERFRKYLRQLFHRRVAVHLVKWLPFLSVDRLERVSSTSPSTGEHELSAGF

The assay has as its target CCR1 (Homo sapiens (Human), UniProt P32246). The experiment in a line: CCR1 Ligand Binding Scintillation Proximity Assay (SPA). The settings on record: [125I]-MIP-1α competition binding on THP-1 monocytic leukemia cells, 12 h at room temperature. The protocol:
CCR1 Ligand Binding Scintillation Proximity Assay (SPA)
For radioligand competition studies, a final concentration of 1×10^5 THP-1 monocytic leukemia cells are combined with 100 μg of LS WGA PS beads (Amersham, Cat.#: RPNQ 0260) in 40 μl of assay buffer (RPMI 1640 without phenol red, 50 mM HEPES, 5 mM MgCl2, 1 mM CaCl2, 0.1% BSA). The THP-1 cell/bead mixture is added to each well of a 384-well assay plate (PerkinElmer, Cat. #:6007899) containing test compound in 3-fold serial dilution, with final concentrations ranging from 8 μM to […]. A final concentration of 0.1 nM [^125I]-MIP-1α (PerkinElmer, Cat. # NEX298) in 20 μl assay buffer is added to the reaction. Sealed assay plates are incubated at room temperature for 12 h then analyzed by LEADseeker™.
The competition data of the test compound over a range of concentrations is plotted as percentage inhibition of radioligand specific bound in the absence of test compound (percent of total signal). After correcting for non-specific binding, IC50 values are determined. The IC50 value is defined as the concentration of test compound needed to reduce [^125I]-MIP-1α specific binding by 50% and is calculated using the four parameter logistic equation to fit the normalized data. The Ki values are determined by application of the Cheng-Prusoff equation to the IC50 values, where Ki=IC50/(1+ ligand concentration/Kd) The Kd of [^125I]-MIP-1α in THP-1 cells is 0.1 nM. Each experiment is run in duplicate.
Background: In a scintillation proximity assay essentially only radioactivity close to the scintillant gives light.
Regarding `CC1(C)CN(C(=O)[C@H]2CCCC[C@H]2NC(=O)c2ccccc2)CC[C@]1(O)c1ccc(Cl)cc1` [Example 2, N-((1R,2S)-2-((S)-4-(4-Chlorophenyl)-4-hydroxy-3,3-dimethylpiperidine-1-carbonyl)cyclohexyl)benzamide], the 50% inhibitory concentration (IC50) – broadly, the concentration at which inhibition is half-maximal – was 2.1 nM.
Regarding `CC(C)(C)OC(=O)N[C@@H]1CCC[C@@H]1C(=O)N1CC[C@](O)(c2ccc(Cl)cc2)C(C)(C)C1` [Example 7, tert-Butyl (1R,2S)-2-((S)-4-(4-chlorophenyl)-4-hydroxy-3,3-dimethylpiperidine-1-carbonyl)cyclopentylcarbamate], the IC50 was 12.1 nM.
As for `CC1(C)CN(C(=O)[C@H]2CCC[C@H]2NC(=O)Nc2ccccc2)CC[C@]1(O)c1ccc(Cl)cc1` [Example 9, 1-((1R,2S)-2-((S)-4-(4-Chlorophenyl)-4-hydroxy-3,3-dimethylpiperidine-1-carbonyl)cyclopentyl)-3-phenylurea], the figure is 11.5 nM.
`CC1(C)CN(C(=O)[C@H]2CC3(CC[C@H]2NC(=O)c2ccccc2)OCCO3)CC[C@]1(O)c1ccc(Cl)cc1` [Example 10, N-((7S,8R)-7-((S)-4-(4-Chlorophenyl)-4-hydroxy-3,3-dimethylpiperidine-1-carbonyl)-1,4-dioxaspiro[4.5]decan-8-yl)benzamide] displayed a half-maximal inhibitory concentration (IC50) of 1060 nM.
The molecule `CC1(C)CN(C(=O)[C@H]2CC(=O)CC[C@H]2NC(=O)c2ccccc2)CC[C@]1(O)c1ccc(Cl)cc1` [Example 11, N-((1R,2S)-2-((S)-4-(4-Chlorophenyl)-4-hydroxy-3,3-dimethylpiperidine-1-carbonyl)-4-oxocyclohexyl)benzamide] gave a concentration for half-maximal inhibition (IC50) of 17.2 nM.
As for `CC1(C)CN(C(=O)[C@H]2CCCC[C@H]2NC(=O)Nc2ccccc2)CC[C@]1(O)c1ccc(Cl)cc1` [Example 35], the figure is 18.5 nM.
As for `COC(=O)N[C@@H]1CCCC[C@@H]1C(=O)N1CC[C@](O)(c2ccc(Cl)cc2)C(C)(C)C1` [Example 41], the figure is 997 nM; as for `CC1(C)CN(C(=O)[C@H]2CCCC[C@H]2NC(=O)c2cncnc2)CC[C@]1(O)c1ccc(Cl)cc1` [Example 57], 18.7 nM; as for `CC1(C)CN(C(=O)[C@H]2CCCC[C@H]2NC(=O)CCN2CCCCC2)CC[C@]1(O)c1ccc(Cl)cc1` [Example 58], 932 nM.
As for `CC1(C)CN(C(=O)[C@H]2CCCC[C@H]2NC(=O)CCc2ccccc2)CC[C@]1(O)c1ccc(Cl)cc1` [Example 60], the figure is 15.7 nM.
The molecule `CC1(C)CN(C(=O)[C@H]2CCCC[C@H]2NC(=O)CO)CC[C@]1(O)c1ccc(Cl)cc1` [Example 61] gave an IC50 of 768 nM.
As for `CC1(C)CN(C(=O)[C@H]2CCCC[C@H]2NC(=O)[C@H](O)c2ccccc2)CC[C@]1(O)c1ccc(Cl)cc1` [Example 67], the figure is 858 nM.
As for `CC1(C)CN(C(=O)[C@H]2CCCC[C@H]2NC(=O)[C@@H](O)c2ccccc2)CC[C@]1(O)c1ccc(Cl)cc1` [Example 68], the figure is 581 nM; as for `C[C@@H](O)CNC(=O)N[C@@H]1CCCC[C@@H]1C(=O)N1CC[C@](O)(c2ccc(Cl)cc2)C(C)(C)C1` [Example 76], 14.6 nM.
As for `CC1(C)CN(C(=O)[C@H]2CCC[C@H]2NC(=O)c2cccc(S(N)(=O)=O)c2)CC[C@]1(O)c1ccc(Cl)cc1` [Example 80], the figure is 1 nM.
With `CC1(C)CN(C(=O)[C@H]2CCC[C@H]2NC(=O)[C@@H]2CC[C@H](O)C2)CC[C@]1(O)c1ccc(Cl)cc1` [Example 83], the concentration for half-maximal inhibition (IC50) came out at 14 nM.
Molecule `CC1(C)CN(C(=O)[C@H]2CCC[C@H]2NC(=O)[C@H]2CC[C@@H](O)C2)CC[C@]1(O)c1ccc(Cl)cc1` [Example 84] returned an IC50 of 1.5 nM.
As for `CC1(C)CN(C(=O)[C@H]2CCC[C@H]2NC(=O)c2cccc(C(=O)O)c2)CC[C@]1(O)c1ccc(Cl)cc1` [Example 85], the figure is 1.6 nM.
As for `CC1(C)CN(C(=O)[C@H]2CCC[C@H]2NC(=O)C2CCCC2)CC[C@]1(O)c1ccc(Cl)cc1` [Example 86], the figure is 1.3 nM; as for `CC1(C)CN(C(=O)[C@H]2CCC[C@H]2NC(=O)c2cccc(C(N)=O)c2)CC[C@]1(O)c1ccc(Cl)cc1` [Example 89], 1.8 nM.
As for `CC1(C)CN(C(=O)[C@H]2CCCC[C@H]2NC(=O)c2cccc(C(=O)O)c2)CC[C@]1(O)c1ccc(C#N)cc1` [Example 100, 3-((1R,2S)-2-((S)-4-(4-Cyanophenyl)-4-hydroxy-3,3-dimethylpiperidine-1-carbonyl)cyclohexylcarbamoyl)benzoic acid], the figure is 11.3 nM; as for `CC1(C)CN(C(=O)[C@H]2CCCC[C@@]2(C)NC(=O)c2ccccc2)CC[C@]1(O)c1ccc(Cl)cc1` [Example 104], 818 nM; as for `C[C@H](NC(=O)N[C@@H]1CCCC[C@@H]1C(=O)N1CC[C@](O)(c2ccc(Cl)cc2)C(C)(C)C1)C(C)(C)O` [Example 106], 0.7 nM.
